Source: a melting point compilation (Tetko et al.; mined from patent text by program, amines drawn as free bases though some values may be those of a salt)

SMILES	melting point
O=C(NO)c1ccccn1	58 to 68 °C
N[C@@H](Cc1ccc(C(F)(F)F)cc1)[C@H](O)c1ccc(Cl)nc1 (racemic)	103 to 104 °C
CCOC(=O)N1CCC(c2ccc(N3CC(COC)OC3=O)cc2)CC1 (racemic)	86 to 88 °C
COc1ccc(N2CCOCC2)c2sc(C(=O)NCC(=O)c3cccs3)nc12	165 °C
CCOC(=O)c1ccc(-c2csc(-c3ccccc3)n2)cc1	72 to 73 °C
CCCCCCCCCC(C)(C)c1cc(-c2cc3ccc(C(=O)O)cc3o2)ccc1OC	150 °C
CS(=O)(=O)c1ccc(Oc2ccc(Cl)cc2)cc1	109 to 111 °C
Cc1csc2c1c(-c1ccccc1)nc(=O)n2C	275 to 280 °C
COC(=O)c1ccc(CCl)nc1	63.5 to 63.8 °C
CCCCCCCCC1C=CC(/C(C)=C/c2ccc(C(=O)O)o2)=C2N=C3CCCCC3=C21 (stereo unspecified)	152 to 154 °C
CC(C)OCCNc1ccccc1C(=O)C(=O)OC(=O)C(=O)c1ccccc1NCCOC(C)C	107 to 108 °C
CCCCCCCCCCC1Cc2ccc(C(=O)O)cc2N1 (racemic)	123 to 125 °C
Cc1ccc2c3c(c(=O)oc2c1)CN(Cc1ccccc1)CC3	109 to 111 °C
CCOC(=O)Cc1nn(CC(=O)Nc2ccccc2)c(=O)c2ccccc12	187 °C
N#Cc1cccc(Oc2ncccc2C(=O)NCc2ccc(-c3cccc(C(=O)O)c3)cc2F)c1	200 to 202 °C
CC(Nc1ccc2[nH]c(=O)oc2c1)C(=O)N1CCC(Cc2ccccc2)CC1 (stereo unspecified)	91 °C
Cc1nnc(NC2CCCCC2)s1	192 to 194 °C
O=S(=O)(c1ccc(Cl)cc1)C(CCO)c1cc(F)ccc1F (stereo unspecified)	147 to 149 °C
N#Cc1cc(C(=O)NNC(=O)c2occc2-c2ccncc2)ccc1O	280 °C
O=C(NCCN(CCNC(=O)OCCO)c1nc(Cl)nc(N(CCNC(=O)OCCO)CCNC(=O)OCCO)n1)OCCO	174 °C
O=C1c2ccccc2-c2c1c1ccccc1c(=O)n2CCCCO	165 to 166 °C
CNC(=O)C(=NOC)c1cccc(Cl)c1COc1ccc(Sc2ccc(C)cc2)cn1	100 to 102 °C
CCOC(=O)C(=O)CC(=O)c1cccc(Cl)c1Cl	57 to 58 °C
CCCN(Sc1nc2ccccc2s1)C(C)(C)C	55 to 56 °C

SMILES	melting point
O=c1c2ccccc2cc(Br)c2ccncc12	167 to 169 °C
Cc1ccccc1C(CCC(=O)O)Oc1cc(OCc2ccsc2)ccc1C#N (stereo unspecified)	143 °C
CCCCCCC1=CC(O)(C(Br)Br)N(CCCC)C1=O (stereo unspecified)	85 to 86 °C
CCCn1nc2c(N)nc3ccccc3c2c1CCNS(C)(=O)=O	187 to 188 °C
COc1nc(N)nc(C2CC2)n1	158 to 159 °C
CCOC(=O)C1=C(C)NC(c2ncc[nH]2)=NC1c1ccc(F)cc1Cl (stereo unspecified)	157 to 162 °C
COc1ccc(Sc2cc(Cl)ccc2[N+](=O)[O-])c(C(=O)O)c1	184 to 186 °C
CS(=O)(=O)Nc1cc2occ(C(N)=O)c(=O)c2cc1Oc1ccccc1F	249 to 251 °C
CCCNCCc1c[nH]c2ccc(NC(N)=O)cc12	146 to 147 °C
O=C(Nc1ccc2c(c1)OCCO2)c1ccc2cc(Br)ccc2c1	223 °C
COc1cc2cc(-c3ccccc3)sc2c(Cl)c1Cl	144 to 145 °C
COc1cc2ncc(C#N)c(Nc3ccc(C)c(Br)c3)c2cc1OC	292 to 294 °C
CCOCc1nc2c(N)nc3cc(OCCCCCCNC(=O)NC(C)C)ccc3c2n1CC(C)(C)NC(=O)NC(C)C	205 to 209 °C
CON=C(C)c1ccc(Nc2nc3ccccc3c3occc23)cc1	222 to 223 °C
CNc1ccc(Cl)cc1C(O)c1ccccc1Cl (stereo unspecified)	106 to 108 °C
COC(=O)/C(=C/c1ccc(OCc2ccccc2)c([N+](=O)[O-])c1)N=[N+]=[N-]	95 to 96 °C
CCOc1ccc(C(=O)Nc2ccc3ccc(OC)nc3n2)cc1	145 °C
CCN(CC1CCN(C(N)=O)CC1)C(C)Cc1ccc(OC)cc1 (stereo unspecified)	104 to 110 °C
O=C(OCCOc1ccc2ncnn2n1)C1CN(C(c2ccccc2)c2ccccc2)CCN1 (stereo unspecified)	157 to 159 °C
CC(C)(C)OC(=O)NC(CCOP(=O)(Oc1ccccc1)Oc1ccccc1)C(=O)OCc1ccccc1 (racemic)	63.5 to 64 °C
CC(C)Cn1c(=O)n(C)c(=O)c2c(-c3ccsc3)c(Cc3ccccc3C(F)(F)F)sc21	113 to 114 °C
CC(C)(Oc1ccc(CC(=O)Nc2cc(Cl)cc(Cl)c2)cc1)C(=O)O	138 °C
COc1ccc(C(=O)c2ccc3[nH]c(=O)nc(-c4cccc(Cl)c4)c3c2)cc1	248 °C
O=C(O)C1=C(c2ccc3c(c2)OCO3)c2ccccc2S(=O)(=O)N1Cc1ccc2c(c1)OCO2	229 to 230 °C

SMILES	melting point
O=C1C=CC(=O)c2cc(C(F)(F)F)c(C(F)(F)F)cc21	91 to 94 °C
CCOC(=O)c1sc(NC(C)=O)nc1CCl	164 to 165 °C
CCCCCCCCCCCC(=O)Oc1c(C(=O)c2ccc(Cl)cc2Cl)c(C)nn1C	56 °C
O=C(Nc1ccc2c(c1)COCC2)OCc1ccccc1	94 to 95 °C
CC(C)(c1ccccc1)C(Sc1ccc(Cl)cc1)n1ccnc1 (stereo unspecified)	77 to 79 °C
O=C(C=C(c1ccccc1)c1ccc(Cl)cc1)Nc1ccc(C(=O)O)cc1	220 to 223 °C
COC(=O)C1=C(C(OC)OC)NC(C)=C(C(=O)OCC(C)(C)C)C1c1ccccc1C#N (stereo unspecified)	130 to 131 °C
O=c1cccccc1S	55 °C
CCCCCc1nc2c(N)nc3ccccc3c2n1CCCCNC(=O)Nc1ccccc1	159 to 160 °C
COc1ccc2c(c1)c(Cc1cc(=O)n(C3CCCCC3)[nH]1)c(C)n2C(=O)c1ccc(Cl)c(Cl)c1	104 to 107 °C
NC(=O)N1C(=O)C(C(=O)c2cccs2)c2cnccc21 (stereo unspecified)	250 °C
CCOc1ccc(-n2c(C(F)(F)F)nn(C)c2=S)cc1	93 to 95 °C
Cc1cc(NCc2ccccc2)c2cc(NC(=O)C=Cc3ccccc3Cl)ccc2n1	253 to 254 °C
O=C(NCc1ccccc1)c1[nH]c2ccc(Cl)cc2c1S(=O)(=O)c1ccccc1	249 to 251 °C
CCCCCCc1cc2c(cc1/C=C/c1ccc(C(=O)O)cc1)C(C)(C)CCC2(C)C	134 to 136 °C
Nc1ccc(C23CC2C(=O)NC3=O)cc1 (stereo unspecified)	183 to 185 °C
CCCn1c(=O)n(CCC)c2cc3c(N4CCN(C(=O)Nc5ccc(Oc6ccccc6)cc5)CC4)ncnc3cc21	179 to 180 °C
CC1(C)Oc2ccsc2C(NC(=O)c2ccncc2)C1O (stereo unspecified)	223 to 234 °C
CCOP(=O)(Cc1cc(=O)[nH]c2cc(Cl)c(Cl)cc12)OCC	219 to 222 °C
CCCCC(=O)Nc1ccc(-c2cc3[nH]c(=O)[nH]c3nc2C)cc1	> 300 °C
O=S(=O)(Nc1cccc(Br)c1)c1cc(S(=O)(=O)Nc2cccc(Br)c2)c2cc(O)ccc2c1	198 to 200 °C
O=C(Nc1ccc(O)cc1[N+](=O)[O-])OCCCl	170 °C
CSc1ccc2cccc(CCNC(=O)C3CC3)c2c1	96 to 98 °C
